The numbers were not newly measured in PMC6524651 (Cell chemical biology, 2018), which cites them from elsewhere.

A word on the IC50: it is the concentration needed to halve the response being measured.

In data set [1] the test system is SUMOylation. To be noted: read-out: IC50 in SUMOylation biochemical assays; among 780 assays; ref PubChem; cited from earlier work.
The test system of data set [2] is RORγ. As to conditions: read-out: IC50 in cellular assay of RORγ; among 780 assays; ref PubChem; cited from earlier work.

Where only a bound is given, the exact number is not on record here.

For the molecule `C=CCC(Nc1ccccc1)C12C=CC(O1)C(C(=O)OC)=C2C(=O)OC` (centres unmarked) [CID 9549553], the IC50 in data set [1] and in data set [2] was below 7 µM throughout.
